Assay results: ChEMBL document CHEMBL4396887, “Five-Membered N-Heterocyclic Scaffolds as Novel Amino Bioisosteres at γ-Aminobutyric Acid (GABA) Type A Receptors and GABA Transporters” (J Med Chem, 2019)
The source made the active and inactive calls. No cut-off for these calls is given here.

Target: T1, Gamma-aminobutyric acid receptor subunit rho-1 (Homo sapiens, UniProt P24046)
Test: Agonist activity at recombinant human GABA-A rho-1 receptor transiently expressed in human tsA201 cells incubated for 30 mins and measured up to 90 secs by FMP dye based FLIPR membrane potential blue assay
Type: cell-based
Settings: read-out: EC50

T1 sequence (P24046 whole entry): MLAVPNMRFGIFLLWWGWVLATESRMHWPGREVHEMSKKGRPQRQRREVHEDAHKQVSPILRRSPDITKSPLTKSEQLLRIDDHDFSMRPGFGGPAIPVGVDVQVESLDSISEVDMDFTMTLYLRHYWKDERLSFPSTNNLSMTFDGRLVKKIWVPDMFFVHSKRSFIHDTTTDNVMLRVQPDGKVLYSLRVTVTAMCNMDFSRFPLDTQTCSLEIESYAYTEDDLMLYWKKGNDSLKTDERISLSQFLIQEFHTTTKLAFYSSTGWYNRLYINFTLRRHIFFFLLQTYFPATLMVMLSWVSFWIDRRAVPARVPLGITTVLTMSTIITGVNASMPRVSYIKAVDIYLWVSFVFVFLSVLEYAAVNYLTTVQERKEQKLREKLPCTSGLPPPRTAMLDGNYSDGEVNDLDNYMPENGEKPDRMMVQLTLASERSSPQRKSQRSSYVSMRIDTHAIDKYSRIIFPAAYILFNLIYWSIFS

| SMILES | EC50 [nM] |
| --- | --- |
| C[C@@H](C(=O)O)[C@@H]1CSC(N)=N1 (relative stereo) | 1600 |
| CC(C(=O)O)C1CSC(N)=N1 (stereo in doubt; l-10b) | 1200 |

The remaining lines, values ahead:

| EC50 [nM] | SMILES |
| --- | --- |
| 2800 | O=C(O)CC1CNC=N1 (configuration not stated) |
| 6500 | NC1=NC(CC(=O)O)CS1 (configuration not stated) |

Target: GABA-A receptor; alpha-1/beta-2/gamma-2 (Homo sapiens) (UniProt P14867+P47870+P18507)
Test: Agonist activity at recombinant human GABA-A alpha1beta2gamma2S receptor transiently expressed in human tsA201 cells assessed as GABA-induced maximum response incubated for 30 mins and measured up to 90 secs by FMP dye based FLIPR membrane potential blue assay relative to GABA
Type: cell-based
Settings: not given

| SMILES | Rmax |
| --- | --- |
| C[C@@H]1SC(N)=N[C@@H]1CC(=O)O (relative stereo) | inactive |
| C[C@@H](C(=O)O)[C@@H]1CSC(N)=N1 (relative stereo) | 22% |

Now from value to compound:

| Rmax | SMILES |
| --- | --- |
| 59% | C[C@@H](C(=O)O)[C@H]1CSC(N)=N1 (relative stereo) |
| 1% | O=C(O)CC1CNC=N1 (configuration not stated) |
| 86% | NC1=NC(CC(=O)O)CS1 (configuration not stated) |

Species on record: Homo sapiens
Test: Agonist activity at recombinant human GABA-A alpha3beta2gamma2S receptor transiently expressed in human tsA201 cells assessed as GABA-induced maximum response incubated for 30 mins and measured up to 90 secs by FMP dye based FLIPR membrane potential blue assay relative to GABA
Type: cell-based
Settings: not given

| SMILES | Rmax [%] |
| --- | --- |
| C[C@@H](C(=O)O)[C@H]1CSC(N)=N1 (relative stereo) | 96 |
| C[C@@H]1SC(N)=N[C@@H]1CC(=O)O (relative stereo) | 76 |
| O=C(O)CC1CNC=N1 (configuration not stated) | 91 |
| NC1=NC(CC(=O)O)CS1 (configuration not stated) | 95 |
| C[C@@H](C(=O)O)[C@@H]1CSC(N)=N1 (relative stereo) | 19 |

Target: T2, Gamma-aminobutyric acid receptor subunit alpha-5/beta-2/gamma-2 (Homo sapiens, UniProt P18507+P31644+P47870)
T2 sequence (P47870 whole entry): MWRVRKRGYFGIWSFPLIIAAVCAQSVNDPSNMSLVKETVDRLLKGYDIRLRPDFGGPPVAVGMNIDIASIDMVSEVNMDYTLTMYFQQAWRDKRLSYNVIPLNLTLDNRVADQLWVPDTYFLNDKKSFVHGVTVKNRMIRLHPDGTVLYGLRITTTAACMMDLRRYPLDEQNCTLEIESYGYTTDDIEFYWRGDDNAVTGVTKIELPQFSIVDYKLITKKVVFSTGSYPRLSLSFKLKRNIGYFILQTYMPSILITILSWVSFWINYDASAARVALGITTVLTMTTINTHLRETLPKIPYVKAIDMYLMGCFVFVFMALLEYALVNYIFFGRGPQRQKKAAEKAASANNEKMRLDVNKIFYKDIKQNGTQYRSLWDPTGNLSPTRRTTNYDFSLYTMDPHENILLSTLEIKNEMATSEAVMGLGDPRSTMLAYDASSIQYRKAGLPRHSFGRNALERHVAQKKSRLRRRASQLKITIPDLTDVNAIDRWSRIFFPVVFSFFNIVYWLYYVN
T2 sequence (P18507 whole entry): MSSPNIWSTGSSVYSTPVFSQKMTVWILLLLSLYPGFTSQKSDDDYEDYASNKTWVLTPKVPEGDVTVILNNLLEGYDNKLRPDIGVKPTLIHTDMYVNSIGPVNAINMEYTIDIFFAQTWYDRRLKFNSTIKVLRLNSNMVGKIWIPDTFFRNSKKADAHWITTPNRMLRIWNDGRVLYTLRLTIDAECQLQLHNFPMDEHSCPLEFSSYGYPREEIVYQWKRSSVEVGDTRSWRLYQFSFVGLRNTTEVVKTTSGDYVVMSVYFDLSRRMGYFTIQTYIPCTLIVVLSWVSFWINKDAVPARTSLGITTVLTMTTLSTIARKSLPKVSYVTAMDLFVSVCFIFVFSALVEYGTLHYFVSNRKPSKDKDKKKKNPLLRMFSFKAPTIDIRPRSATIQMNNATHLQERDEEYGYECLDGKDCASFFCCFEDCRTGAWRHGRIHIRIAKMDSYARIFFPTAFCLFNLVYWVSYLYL
T2 sequence (P31644 whole entry): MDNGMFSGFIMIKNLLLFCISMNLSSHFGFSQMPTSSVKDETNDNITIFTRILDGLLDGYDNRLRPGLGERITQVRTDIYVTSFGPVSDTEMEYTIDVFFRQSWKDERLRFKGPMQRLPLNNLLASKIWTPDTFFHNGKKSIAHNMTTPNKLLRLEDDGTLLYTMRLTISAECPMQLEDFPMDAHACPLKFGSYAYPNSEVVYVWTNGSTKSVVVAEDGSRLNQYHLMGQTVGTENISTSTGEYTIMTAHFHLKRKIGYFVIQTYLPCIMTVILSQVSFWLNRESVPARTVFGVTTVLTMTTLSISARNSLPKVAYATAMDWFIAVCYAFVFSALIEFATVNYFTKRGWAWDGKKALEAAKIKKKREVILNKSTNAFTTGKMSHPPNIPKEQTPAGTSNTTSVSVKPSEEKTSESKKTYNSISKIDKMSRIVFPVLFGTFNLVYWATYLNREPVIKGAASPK
Test: Agonist activity at recombinant human GABA-A alpha5beta2gamma2S receptor transiently expressed in human tsA201 cells incubated for 30 mins and measured up to 90 secs by FMP dye based FLIPR membrane potential blue assay
Type: cell-based
Settings: not given

| SMILES | EC50 [nM] |
| --- | --- |
| C[C@@H]1SC(N)=N[C@@H]1CC(=O)O (relative stereo) | 8200 |
| C[C@@H](C(=O)O)[C@@H]1CSC(N)=N1 (relative stereo) | 3000 |
| CC(C(=O)O)C1CSC(N)=N1 (stereo in doubt; l-10b) | 11000 |

Stronger by EC50, values ahead:

| EC50 [nM] | SMILES |
| --- | --- |
| 2600 | C[C@@H](C(=O)O)[C@H]1CSC(N)=N1 (relative stereo) |
| 790 | O=C(O)CC1CNC=N1 (configuration not stated) |
| 220 | NC1=NC(CC(=O)O)CS1 (configuration not stated) |

Target: T1, Gamma-aminobutyric acid receptor subunit rho-1
Test: Agonist activity at recombinant human GABA-A rho-1 receptor transiently expressed in human tsA201 cells assessed as GABA-induced maximum response incubated for 30 mins and measured up to 90 secs by FMP dye based FLIPR membrane potential blue assay relative to GABA
Type: cell-based
Settings: not given

| SMILES | Rmax [%] |
| --- | --- |
| O=C(O)CC1CNC=N1 (configuration not stated) | 45 |
| NC1=NC(CC(=O)O)CS1 (configuration not stated) | 43 |
| C[C@@H](C(=O)O)[C@@H]1CSC(N)=N1 (relative stereo) | 35 |

Target: T3, Sodium- and chloride-dependent GABA transporter 1 (Homo sapiens, UniProt P30531)
Type: cell-based
Settings: read-out: IC50
Target sequence in this assay (P30531 whole entry): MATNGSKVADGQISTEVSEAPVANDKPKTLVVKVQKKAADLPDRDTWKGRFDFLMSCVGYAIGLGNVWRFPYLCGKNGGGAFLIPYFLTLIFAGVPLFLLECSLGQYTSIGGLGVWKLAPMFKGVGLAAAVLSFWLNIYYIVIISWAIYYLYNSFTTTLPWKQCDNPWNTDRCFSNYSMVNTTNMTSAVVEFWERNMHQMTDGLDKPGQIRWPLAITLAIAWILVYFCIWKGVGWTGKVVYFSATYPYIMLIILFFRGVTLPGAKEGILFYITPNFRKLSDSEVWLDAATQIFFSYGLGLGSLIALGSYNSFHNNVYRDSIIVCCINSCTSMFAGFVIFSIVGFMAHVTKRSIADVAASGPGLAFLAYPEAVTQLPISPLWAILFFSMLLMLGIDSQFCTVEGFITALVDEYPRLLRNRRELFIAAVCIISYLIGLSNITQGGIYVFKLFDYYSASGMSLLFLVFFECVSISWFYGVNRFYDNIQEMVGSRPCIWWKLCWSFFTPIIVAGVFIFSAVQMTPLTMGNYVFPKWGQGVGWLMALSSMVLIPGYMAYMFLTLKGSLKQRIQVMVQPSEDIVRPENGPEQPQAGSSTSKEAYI

| SMILES | IC50 [µM] |
| --- | --- |
| C[C@@H]1SC(N)=N[C@@H]1CC(=O)O (relative stereo) | > 100 |
| C[C@@H](C(=O)O)[C@@H]1CSC(N)=N1 (relative stereo) | > 100 |
| CC(C(=O)O)C1CSC(N)=N1 (stereo in doubt; l-10b) | > 100 |

More lines, now with the values ahead:

| IC50 [µM] | SMILES |
| --- | --- |
| > 100 | C[C@@H](C(=O)O)[C@H]1CSC(N)=N1 (relative stereo) |
| 71.4 | O=C(O)CC1CNC=N1 (configuration not stated) |
| 179 | NC1=NC(CC(=O)O)CS1 (configuration not stated) |

Same assay, conditions: read-out: pIC50 (converted)

| SMILES | IC50 [µM] |
| --- | --- |
| NC1=NC(CC(=O)O)CS1 (configuration not stated) | 158 |

Target: T4, Sodium- and chloride-dependent GABA transporter 3 (Homo sapiens, UniProt P48066)
T4 sequence (P48066 whole entry): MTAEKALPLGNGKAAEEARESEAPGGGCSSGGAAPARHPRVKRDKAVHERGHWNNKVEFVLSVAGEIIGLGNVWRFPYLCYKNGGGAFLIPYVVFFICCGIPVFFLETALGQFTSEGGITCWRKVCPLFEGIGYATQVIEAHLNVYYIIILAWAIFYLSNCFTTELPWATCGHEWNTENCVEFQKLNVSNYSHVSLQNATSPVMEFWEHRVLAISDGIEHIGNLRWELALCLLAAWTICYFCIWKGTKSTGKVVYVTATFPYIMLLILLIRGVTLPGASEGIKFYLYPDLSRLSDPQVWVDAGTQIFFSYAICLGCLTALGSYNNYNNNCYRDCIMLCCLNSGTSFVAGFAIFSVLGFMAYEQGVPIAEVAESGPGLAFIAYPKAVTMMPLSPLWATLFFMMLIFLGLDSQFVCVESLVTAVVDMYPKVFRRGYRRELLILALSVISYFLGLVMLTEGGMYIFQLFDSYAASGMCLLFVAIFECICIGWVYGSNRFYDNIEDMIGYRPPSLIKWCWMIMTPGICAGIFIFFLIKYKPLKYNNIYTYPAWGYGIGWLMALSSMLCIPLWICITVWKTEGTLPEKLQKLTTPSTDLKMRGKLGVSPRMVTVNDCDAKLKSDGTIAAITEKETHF
Test: Inhibition of human GAT3 expressed in Flp-In CHO cells assessed as reduction in [3H]GABA uptake incubated for 3 mins by liquid scintillation counting method
Type: cell-based
Settings: read-out: IC50

| SMILES | IC50 [µM] |
| --- | --- |
| C[C@@H]1SC(N)=N[C@@H]1CC(=O)O (relative stereo) | > 100 |
| C[C@@H](C(=O)O)[C@@H]1CSC(N)=N1 (relative stereo) | > 100 |
| CC(C(=O)O)C1CSC(N)=N1 (stereo in doubt; l-10b) | > 100 |

The remaining lines, values ahead:

| IC50 [µM] | SMILES |
| --- | --- |
| > 100 | C[C@@H](C(=O)O)[C@H]1CSC(N)=N1 (relative stereo) |
| 1.9 | O=C(O)CC1CNC=N1 (configuration not stated) |
| 151 | NC1=NC(CC(=O)O)CS1 (configuration not stated) |

Same assay, conditions: read-out: pIC50 (converted)

| SMILES | IC50 [µM] |
| --- | --- |
| NC1=NC(CC(=O)O)CS1 (configuration not stated) | 126 |

Target: T3, Sodium- and chloride-dependent GABA transporter 1
Test: Inhibition of human GAT1 expressed in Flp-In CHO cells assessed as reduction in [3H]GABA uptake at 100 uM incubated for 3 mins by liquid scintillation counting method relative to control
Type: cell-based
Settings: not given
Target sequence in this assay (P30531 whole entry, looked up): as the sequence (P30531 whole entry) above

| SMILES | inhibition [%] |
| --- | --- |
| C[C@@H]1SC(N)=N[C@@H]1CC(=O)O (relative stereo) | > 30 |
| C[C@@H](C(=O)O)[C@@H]1CSC(N)=N1 (relative stereo) | > 30 |

The next lines start with the values.

| inhibition [%] | SMILES |
| --- | --- |
| > 30 | C[C@@H](C(=O)O)[C@H]1CSC(N)=N1 (relative stereo) |
| > 30 | O=C(O)CC1CNC=N1 (configuration not stated) |
| > 30 | NC1=NC(CC(=O)O)CS1 (configuration not stated) |

Target: T5, Sodium- and chloride-dependent GABA transporter 3 (Homo sapiens) (UniProt P48066)
T5 sequence (whole entry): T4 sequence (P48066 whole entry)
Test: Inhibition of human GAT3 expressed in Flp-In CHO cells assessed as reduction in [3H]GABA uptake at 100 uM incubated for 3 mins by liquid scintillation counting method relative to control
Type: cell-based
Settings: not given

| SMILES | inhibition [%] |
| --- | --- |
| C[C@@H]1SC(N)=N[C@@H]1CC(=O)O (relative stereo) | > 30 |
| C[C@@H](C(=O)O)[C@@H]1CSC(N)=N1 (relative stereo) | > 30 |

Results, then the compound that gave them:

| inhibition [%] | SMILES |
| --- | --- |
| > 30 | C[C@@H](C(=O)O)[C@H]1CSC(N)=N1 (relative stereo) |
| > 30 | O=C(O)CC1CNC=N1 (configuration not stated) |
| > 30 | NC1=NC(CC(=O)O)CS1 (configuration not stated) |
